Series [1] concerns 5637 and 5637R cell lines. The experiment in a line: gemcitabine incorporation into DNA by AMS. Type of series: cell-based, human. How it is done: The two cell lines were cultured as described above in Example 11. [^14C]Gemcitabine (FIG. 19) was labeled at position 2 (on the aromatic nucleobase) with a specific activity of 58.8 mCi/mmol (purchased from Moravek Biochemical). Unlabeled gemcitabine (USP Pharmaceutical Grade) was mixed with the labeled gemcitabine to achieve the correct specific activity for this experiment. […] This microdose is approximately 0.1% of a therapeutically relevant concentration. Cells were sampled for DNA extraction and AMS analysis of ^14C in DNA over 24 hours.

Series [2] relates to PDX Model BL0269. The experiment in a line: PDX tumor growth under chemotherapy. Type of series: in vivo, NSG mice. As to conditions: cisplatin 2 mg/kg IV Q7Dx3, gemcitabine 150 mg/kg IP Q7Dx4. As to the method:
(§1) Female NSG mice (5-8 weeks of age, body weight: 20 to 25 g) were obtained from Jackson Laboratories (CA, USA). […] To establish multiple PDXs to allow efficacy studies with multiple drugs, PDXs from passage 2-4 were minced into 1 mm^3 sections and injected subcutaneously into multiple mice. […] G/C combination chemotherapy consisted of the simultaneous administration of both drugs using the schema described above. Tumor growth was assessed by measuring palpable tumors with a caliper and calculating tumor volume. […] DNA was isolated using a modified Wizard procedure (Promega), quantitated by spectrophotometry, and then stored frozen at −20° C. until AMS analysis. […] Primary tumor tissue from four bladder cancer patients were implanted in NSG mice to create the PDX models described in Table 5. […] Of the four distinct tumors tested in the PDX model, three were resistance to cisplatin (BL0269, BL0293, BL0645) and two were resistance to gemcitabine (BL0269, BL0645) as single agent therapies.

Series [3] has as its system PDX Model BL0293. The experiment in a line: PDX tumor growth under chemotherapy. Type of series: in vivo, NSG mice. The settings on record: cisplatin 2 mg/kg IV Q7Dx3, gemcitabine 150 mg/kg IP Q7Dx4. As to the method: as §1
The subject of series [4] is PDX Model BL0440. Briefly: PDX tumor growth under chemotherapy. Type of series: in vivo, NSG mice. As to conditions: cisplatin 2 mg/kg IV Q7Dx3, gemcitabine 150 mg/kg IP Q7Dx4. As to the method: as §1
Series [5] deals with PDX Model BL0645. Briefly: PDX tumor growth under chemotherapy. Type of series: in vivo, NSG mice. As to conditions: cisplatin 2 mg/kg IV Q7Dx3, gemcitabine 150 mg/kg IP Q7Dx4. As to the method: as §1
Series [6] relates to PDX Model BL0269. The experiment in a line: drug-DNA adducts in PDX tumor by AMS. Type of series: in vivo, NSG mice. From the text:
(§2) Female NSG mice (5-8 weeks of age, body weight: 20 to 25 g) were obtained from Jackson Laboratories (CA, USA). All animals were kept under pathogen-free conditions and were allowed to acclimatize for at least 4 days prior to any experiments. PDX models bearing the indicated patient derived xenografts were created by subcutaneous injection at the flank of 1 mm^3 tumor tissue. To establish multiple PDXs to allow efficacy studies with multiple drugs, PDXs from passage 2-4 were minced into 1 mm^3 sections and injected subcutaneously into multiple mice. At least 3 mice were used for each treatment group. Tumors were allowed to grow to at about 100 mm^3 before being assessed for drug sensitivity or the induction of DNA adducts by the administration of a microdose or a therapeutic dose of labeled drug. To assess tumor response to chemotherapy, cisplatin was administered at 2 mg/kg IV every 7 days for a total of 3 cycles, or gemcitabine was administered at 150 mg/kg IP every 7 days for a total of 4 cycles. G/C combination chemotherapy consisted of the simultaneous administration of both drugs using the schema described above. Tumor growth was assessed by measuring palpable tumors with a caliper and calculating tumor volume. Drug-DNA adduct frequencies were measured in tumor tissue collected 24 hours after intravenous injection of labeled drug and stored at −80° C. until DNA isolation. DNA was isolated using a modified Wizard procedure (Promega), quantitated by spectrophotometry, and then stored frozen at −20° C. until AMS analysis. Ten micrograms of DNA per sample was converted to graphite and measured by AMS for 14C quantification as previously described.
(§3) NSG mice bearing the indicated PDX tumors were injected with a microdose of ^14C-labeled carboplatin (FIG. 22A) or ^14C-labeled gemcitabine (FIG. 22B). The microdose of ^14C-labeled carboplatin was 0.375 mg/kg carboplatin, 50,000 dpm/g. The microdose of ^14C-labeled gemcitabine was 0.092 mg/kg gemcitabine, 1000 dpm/g. The doses of each drug administered to the mice were chosen to target 1 μM in plasma concentration of carboplatin and 0.3 μM in plasma concentration of gemcitabine. These plasma concentrations represent 1% of the approximate peak plasma concentration during human chemotherapy. Animals were sacrificed after 24 h and drug-DNA adduct frequency was determined from collected tumor tissue by AMS measurements of ^14C in tumor DNA. Carboplatin DNA-adduct levels correlate with PDX model sensitivity to cisplatin at 24 h after microdosing (FIG. 22A). Gemcitabine DNA-adduct levels correlate with PDX model sensitivity to gemcitabine at 24 h after microdosing (FIG. 22B). […] There is no significant difference in carboplatin-DNA monoadduct levels between the three resistant PDX models. […] We conclude that microdose induced carboplatin-DNA monoadducts predicts sensitivity to cisplatin chemotherapy, and microdose induced gemcitabine incorporation predicts sensitivity to gemcitabine chemotherapy.
(§4) In this example we test whether gemcitabine/carboplatin (G/Carbo) combination therapy has an effect on the formation of drug-DNA adducts in this synergistic tumor model. In FIG. 23A, NGS mice bearing BL0645 xenographs were administered via tail vein injection a therapeutic dose of [^14C]carboplatin alone or a therapeutic dose of [^14C]carboplatin in combination with a therapeutic dose of gemcitabine. Carboplatin-DNA monoadducts were measured in tumor tissue 24 h after dosing. A therapeutic dose of the combination [^14C]carboplatin plus unlabeled gemcitabine leads to a significant increase in carboplatin-DNA monoadduct level (94.84±16.02 versus 209.6±64.66 adducts per 10^8 nucleotides, p=0.032) compared to treatment with carboplatin alone. In FIG. 23B, the same experiment was conducted in which the mice received a therapeutic dose of [^14C]gemcitabine alone or a therapeutic dose of [^14C]gemcitabine in combination with a therapeutic dose of unlabeled carboplatin. […]

The subject of series [7] is PDX Model BL0645. Briefly: drug-DNA adducts in PDX tumor by AMS. The settings on record: 24 h. Type of series: in vivo, NSG mice.
Source text: as §2, §3, §4

Series [8] has as its system PDX Model BL0293. The experiment in a line: drug-DNA adducts in PDX tumor by AMS. As to conditions: microdose 0.092 mg/kg gemcitabine, 24 h. Type of series: in vivo, NSG mice.
Source text: as §2
(§5) NSG mice bearing the indicated PDX tumors were injected with a microdose of ^14C-labeled carboplatin (FIG. 22A) or ^14C-labeled gemcitabine (FIG. 22B). The microdose of ^14C-labeled carboplatin was 0.375 mg/kg carboplatin, 50,000 dpm/g. The microdose of ^14C-labeled gemcitabine was 0.092 mg/kg gemcitabine, 1000 dpm/g. The doses of each drug administered to the mice were chosen to target 1 μM in plasma concentration of carboplatin and 0.3 μM in plasma concentration of gemcitabine. These plasma concentrations represent 1% of the approximate peak plasma concentration during human chemotherapy. Animals were sacrificed after 24 h and drug-DNA adduct frequency was determined from collected tumor tissue by AMS measurements of ^14C in tumor DNA. Carboplatin DNA-adduct levels correlate with PDX model sensitivity to cisplatin at 24 h after microdosing (FIG. 22A). Gemcitabine DNA-adduct levels correlate with PDX model sensitivity to gemcitabine at 24 h after microdosing (FIG. 22B). […] There is no significant difference in carboplatin-DNA monoadduct levels between the three resistant PDX models. […]

The test system of series [9] is PDX Model BL0440. The experiment in a line: drug-DNA adducts in PDX tumor by AMS. As to conditions: microdose 0.092 mg/kg gemcitabine, 24 h. Type of series: in vivo, NSG mice.
Source text: as §2, §5

The conditions of series [10]: IV dose of 1000 mg/m^2 over 30 minutes; cited from earlier work.
In the next series the test system is H1975. Briefly: MTT assay IC50. Type of series: cell-based, human. As to the method: (§6) Six non-small cell lung cancer (NSCLC) cell lines were treated in culture with [^14C]carboplatin. Carboplatin-DNA monoadduct levels over time were determined by measuring ^14C content in genomic DNA with accelerator mass spectrometry (AMS). Cellular sensitivity to carboplatin and cisplatin was analyzed by the MTT assay (Henderson et al., International Journal of Cancer 2011).
(§7) Human NSCLC cell lines H23, H460, H727, HCC827, H1975, and A549 were purchased from ATCC and were cultured with the recommended medium. The MTT assay was performed as previously reported to determine the drug concentration required to inhibit cell growth by 50% (IC50) of cisplatin and carboplatin. [^14C]Carboplatin (at 53 mCi/mmol) was mixed with unlabeled carboplatin to achieve the specific activities required for microdoses and therapeutic doses. Table 1 lists the six NSCLC cell lines and summarizes their IC50 characteristics, induced carboplatin-DNA monoadducts when treated with [^14C]carboplatin, and p and r^2 values for correlation analysis to the IC50 concentrations.
In general terms: Tetrazolium dyes change colour on reduction, which living cells bring about.

In the next series the test system is H23. The experiment in a line: MTT assay IC50. Type of series: cell-based, human. How it is done: as §6, §7
The test system of another series is H460. Briefly: MTT assay IC50. Type of series: cell-based, human. As to the method:
as §6, §7

The next series has as its system H727. The experiment in a line: MTT assay IC50. Type of series: cell-based, human. As to the method: as §6, §7
For a further series, the system named is HCC827. The experiment in a line: MTT assay IC50. Type of series: cell-based, human. As to the method:
as §6, §7

Another series has as its system HT1197. The experiment in a line: MTT assay IC50, bladder cancer cell line. Type of series: cell-based. From the text:
(§8) If these diadducts are the predominant DNA lesion responsible for cell death, then the IC50 of the two drugs should be linearly related. Thus, we measured the IC50 of the six NSCLC cell lines from Example 2 to both cisplatin and carboplatin to determine if the sensitivity of these six NSCLC cell lines to the two drugs are correlated. We observed a statistically significant linear correlation of the cytotoxicity of these two drugs in the 6 cell lines used in this study (R^2=0.72, p=0.033, FIG. 9A) and also to six additional ATCC bladder cancer cell lines. (R^2=0.72, p=0.033), FIG. 9B).

For a further series, the system named is J82. The experiment in a line: MTT assay IC50, bladder cancer cell line. Type of series: cell-based.
Source text: as §8

In the next series the test system is RT4. Briefly: MTT assay IC50, bladder cancer cell line. Type of series: cell-based.
Source text: as §8

The next series concerns T24. The experiment in a line: MTT assay IC50, bladder cancer cell line. Type of series: cell-based.
Source text: as §8

The subject of the next series is TCCSUP. Briefly: MTT assay IC50, bladder cancer cell line. Type of series: cell-based.
Source text: as §8

The next series has as its system 5637R. Briefly: MTT assay IC50, oxaliplatin-resistant bladder cancer sub-line. Type of series: cell-based, human. As to conditions: 5637R, 72 hours. As to the method:
Drug-DNA adduct formation and repair was measured by accelerator mass spectrometry.
To confirm that 5637 was the original ATCC cell line, and that 5637R originated from the parental 5637 cell line, both cultures were sent to the ATCC Cell Line Authentication Service for cell verification per the ATCC protocol. More specifically, fifteen short tandem repeat (STR) loci plus the gender determining locus, amelogenin, were amplified using the commercially available PowerPlex® 16HS Kit from Promega.
These two cell lines were also cultured with a range of concentrations of cisplatin, carboplatin, gemcitabine, doxorubicin, methotrexate and vinblastine for 72 hours to determine IC50 for these other drugs (FIG. 16C). These drugs were chosen because of their frequent use in the treatment of bladder cancer.

`Nc1ccn([C@@H]2O[C@H](CO)[C@@H](O)C2(F)F)c(=O)n1` [gemcitabine]: the “gemcitabine incorporation in 5637R compared to parental 5637 cells” value in [1] (0.03 μM 4 hours, at 24 hours) was “much lower gemcitabine incorporation”. Besides, the “cytotoxicity of subtherapeutic dose” value in series [1] (0.03 μM for 4 hours) is listed as “no cytotoxicity”. Moreover, the “Xenograph Sensitivity” value with PDX Model BL0269 [2] is on record as “RES”; in the series on PDX Model BL0293 [3], “SEN”; in the series with PDX Model BL0440 [4] it was “SEN”; in the series on PDX Model BL0645 [5], “RES”. The gemcitabine-DNA adduct levels with PDX Model BL0269 [6] (control experiment FIG. 23F, microdose single agent or G/Carbo combination) is given as 2.44±0.492 adducts per 10^8 nucleotides. In addition, the gemcitabine adduct levels in the series on PDX Model BL0269 [6] (microdose 0.092 mg/kg gemcitabine, 24 h (FIG. 22B)) is listed as 3.17±0.278; in the series on PDX Model BL0293 [8] it was 10.0±5.92; in the series with PDX Model BL0440 [9], 13.1±10.2. Besides, in the series with PDX Model BL0645 [7] (microdose 0.092 mg/kg gemcitabine alone or with carboplatin 0.375 mg/kg), the gemcitabine adducts is reported as 2.44±0.880 adducts per 10^8 nucleotides. Also, in the series on PDX Model BL0645 [7] (therapeutic 9.2 mg/kg gemcitabine alone or with carboplatin 37.5 mg/kg), the gemcitabine adduct level is given as 169.2±9.129 adducts per 10^8 nucleotides. In addition, the plasma concentration entry in [10] was “about 30 μM”. In addition, the plasma half-life entry in series [10] is given as “about 60 minutes”.
Consider `N.N.[Cl][Pt][Cl]` [cisplatin], for which the IC50 with H1975 was determined as 14.5 µM; in the series with H23, 4.23 µM; in the series with H460 it was 3.53 µM; with H727, 20 µM; in the series on HCC827 it was 18.2 µM; in the series on HT1197, 6.2 ± 0.03 µM. Besides, the IC50 with J82 worked out at 12.6 ± 1.17 µM; in the series on RT4, 8.35 ± 0.01 µM; with T24, 5.28 ± 0.04 µM; in the series on TCCSUP it was 11.7 ± 1.63 µM; in the series with 5637R it was 2.99 µM. The “Xenograph Sensitivity” value was “RES” with PDX Model BL0269 [2], “RES” in the series on PDX Model BL0293 [3], “SEN” in the series on PDX Model BL0440 [4] and “RES” in the series with PDX Model BL0645 [5].

The IC50 is the midpoint of a concentration-inhibition curve.

The values above are taken from patent publication US20200010910A1, “Cytotoxic Chemotherapy-Based Predictive Assays for Acute Myeloid Leukemia” (The Regents of The University of California, priority 2017, published 2020).
